Values of other authors in US20040248979A1, “Method of treating lower urinary tract disorders” (DYNOGEN PHARMACEUTICALS, INC., priority 2003, published 2004).

Tests used:
[1] = preclinical and clinical studies
[2] = tested on: α2δ subunits of calcium channels

SMILES: COc1cccc([C@]2(O)CCCC[C@H]2CN(C)C)c1 (racemic) [Tramadol, (+/−)cis-2-[(dimethylamino)methyl]-1-(3-methoxyphenyl) cyclohexanol]
- affinity for opioid receptors (opioid receptors): low affinity

SMILES: CC(OC(=O)NCC1(CC(=O)O)CCCCC1)OC(=O)C(C)C (centres unmarked) [XP13512]
- blood levels of gabapentin across oral doses ([1]; broad range of oral doses): dose proportional blood levels of gabapentin
- absorption from the large intestine [1]: absorbed efficiently from the large intestine

SMILES: CC(C)C[C@H](CN)CC(=O)O [Pregabalin, (3S)-3-(aminomethyl)-5-methylhexanoic acid]
- binding affinity for calcium channel subunits [2]: even higher binding affinity for certain α2δ subunits of calcium channels than gabapentin

SMILES: NCC1(CC(=O)O)CCCCC1 [Gabapentin, 1-(aminomethyl) cyclohexaneacetic acid]
- binding affinity for calcium channel subunits [2]: high binding affinity
